# According to US20100196874A1, “METHOD OF DRUG DESIGN” (priority 2006, published 2010):
# Like-named read-outs stand apart in the source and are kept apart here.
# Columns and labels:
# [1] = test system: amiloride-resistant and guanidine-resistant CVB3 clones; experiment: Cross-resistance of amiloride-resistant and guanidine-resistant virus clones; type: cell-based, Coxsackievirus B3
# CVB3 [2] = details: for IC50: read-out: IC5, HeLa cell culture with CVB3; for antiviral effect against CVB3 relative to cytotoxic effect: % virus yield versus % cell metabolism, HeLa cells, FIG. 1; for order of antiviral potency: CVB3, same order as against HRV2
# Description: (§1) The toxicity of the compounds (CC50, being the concentration causing 50% reduction in cell metabolism as measured by Alamar Blue assay) reflects the relative activity of each compound against cellular ion channels, while the antiviral activity (IC50) reflects the relative activity of each compound against the RdRP of CVB3.
# CVB3 [3] = experiment: Viral RNA synthesis, 3H-uridine pulse label; type: cell-based, Coxsackievirus B3; details: treated between four and five hours post infection, compared to untreated cells
# Description: A standard method to determine which of the two processes is inhibited directly is to add the inhibitor and pulse-label viral RNA and proteins at the time in the replication cycle when sufficient amounts of RNA and proteins have been produced to allow continuation of one process independent of the other.
# In a further set of experiments, the effect of the drugs on viral protein synthesis (see FIG. 5) and viral RNA synthesis (see FIG. 6) was determined. Cells were infected as described in Examples 2 and 3, and drugs were added to cells at four hours post infection. Radioactive labels (35S-methionine for proteins, 3H-uridine for RNA) were added to cells from 4.5-5 h post infection. Treatment with GHCl, which inhibits enteroviral RNA replication but not protein synthesis was used as a control.
# CVB3 [4] = experiment: Viral assembly: viral RNA (3H-uridine) versus virus produced; type: cell-based, Coxsackievirus B3; details: 3H-uridine labelling; 25 micromolar EIPA (compared with 500 micromolar guanidine), 400 micromolar amiloride
# Description: In a further set of experiments, the effect of the drugs on viral assembly was determined. […] Guanidine is well known to inhibit the initiation of viral RNA replication through its effect on the viral 2C protein, but has no effect on the assembly of virus from RNA that is replicated in its presence. Infected cells were incubated with 3H-uridine to label viral RNA, and RNA was detected by electrophoresis and autoradiography.
# [5] = test system: CVB3 mutants S299T, A372V, D48G; experiment: Drug sensitivity of CVB3 carrying single introduced mutations; type: cell-based, Coxsackievirus B3; details: for effect of D48G mutation on virus sensitivity: 2A protein mutation by itself; for sensitivity of viruses containing S299T or A372V mutations: 3D protein mutations, FIG. 11
# CVB3 [6] = experiment: Time of addition of drugs to CVB3-infected cultures, total virus yield; type: cell-based, Coxsackievirus B3; details: 400 μM amiloride or 25 μM EIPA, added up to 2 hours post-infection, yield at 10 hours
# Description: Cultures were incubated until 10 hours post-infection, then the total virus yield (released virus+intracellular virus) was quantitated (FIG. 2A). Kinetics of virus production was measured in parallel (FIG. 2B). […] This contrasts with well-known antiviral drugs active against picornaviruses such as Pleconaril, which prevent uncoating and/or binding to the cell.
# CVB3 [7] = experiment: Release of virus from CVB3-infected cells; type: cell-based, Coxsackievirus B3; details: compared to untreated controls, FIG. 3
# HRV2 = details: cited from earlier work
# CVB3 [8] = experiment: Reversibility: compounds removed at various times post-infection, CVB3 yield at 10 hours; type: cell-based, Coxsackievirus B3; details: compounds removed at 1, 2 or 4 hours post-infection, HeLa cells
# Description: Virus replication was then allowed to continue until 10 hours post-infection.
# [9] = concentration causing 50% reduction in cell metabolism, Alamar Blue assay, HeLa
# Description for HeLa cells: as §1
molecule,measurement,setting,value
"Cl.N=C(N)N [guanidine, guanidine hydrochloride]",sensitivity of amiloride-resistant virus clones to antiviral effect,[1]; six clones of amiloride-resistant virus,remained sensitive
"N=C(NCc1ccc(Cl)cc1Cl)NC(=O)c1nc(Cl)c(N)nc1N [2,4-DCB]",IC50,CVB3 [2],5 µM
same,CC5,HeLa cells; [9],14 µM
"CCN(c1nc(N)c(C(=O)N=C(N)N)nc1Cl)C(C)C [EIPA, 5-(N-ethyl-N-isopropyl)amiloride]",amount of viral RNA synthesis,CVB3 [3],dramatically reduced
same,amount of viral RNA produced,CVB3 [4],equivalent amounts of viral RNA
same,effect of D48G mutation on virus sensitivity,[5],no significant effect
same,sensitivity of viruses containing S299T or A372V mutations,[5],reduced sensitivity
same,antiviral effect against CVB3 relative to cytotoxic effect,CVB3 [2],selective antiviral effect
same,order of antiviral potency,CVB3 [2],EIPA>benzamil>amiloride
same,IC50,CVB3 [2],2 µM
same,CC5,HeLa cells; [9],25 µM
same,reduction of virus replication by time of addition,CVB3 [6],fully effective
same,proportion of extracellular virus,CVB3 [7],slight increase
same,effect upon HRV2 RNA replication,HRV2,no effect
same,effect on HRV2 release,HRV2; previous data,inhibitory effect
same,CVB3 production at 10 hours post-infection after removal of compound,CVB3 [8],equivalent to that of the untreated cultures
CHPG,IC50,CVB3 [2],2 µM
same,CC5,HeLa cells; [9],15 µM
N/C(=N\C(=O)c1nc(Cl)c(N)nc1N)NCc1ccccc1 [Benzamil],antiviral effect against CVB3 relative to cytotoxic effect,CVB3 [2],selective antiviral effect
same,order of antiviral potency,CVB3 [2],EIPA>benzamil>amiloride
same,IC50,CVB3 [2],10 µM
same,CC5,HeLa cells; [9],100 µM
"NC(N)=NC(=O)c1nc(Cl)c(N)nc1N [Amiloride, 3,5-diamino-6-chloro-N-(diaminomethylidene) pyrazine-2-carboxamide]",amount of viral RNA synthesis,CVB3 [3],dramatically reduced
same,amount of viral RNA produced,CVB3 [4],greatly reduced
same,effect of D48G mutation on virus sensitivity,[5],no significant effect
same,sensitivity of viruses containing S299T or A372V mutations,[5],reduced sensitivity
same,sensitivity of guanidine-resistant virus clones to antiviral effect,[1]; six clones of guanidine-resistant virus,remained sensitive
same,order of antiviral potency,CVB3 [2],EIPA>benzamil>amiloride
same,IC50,CVB3 [2],50 µM
same,CC5,HeLa cells,>1000 µM
same,reduction of virus replication by time of addition,CVB3 [6],fully effective
same,proportion of extracellular virus,CVB3 [7],slight increase
same,effect upon HRV2 RNA replication,HRV2,no effect
same,CVB3 production at 10 hours post-infection after removal of compound,CVB3 [8],equivalent to that of the untreated cultures
CC(C)CN(C)c1nc(N)c(C(=O)N=C(N)N)nc1Cl [MIBA],IC50,CVB3 [2],2 µM
same,CC5,HeLa cells; [9],25 µM
CN(C)c1nc(N)c(C(=O)N=C(N)N)nc1Cl [DMA],IC50,CVB3 [2],90 µM
same,CC5,HeLa cells; [9],190 µM
"NC(N)=NC(=O)c1nc(Cl)c(N2CCCCCC2)nc1N [HMA, 5-(N,N-hexamethylene)amiloride]",antiviral effect against CVB3 relative to cytotoxic effect,CVB3 [2],selective antiviral effect
same,IC50,CVB3 [2],2 µM
same,CC5,HeLa cells,25 µM
CNC(N)=NC(=O)c1cc(Cl)ccc1O [CHMG],IC50,CVB3 [2],9 µM
same,CC5,HeLa cells; [9],155 µM
"N/C(=N\C(=O)c1nc(Cl)c(N)nc1N)NCc1ccc(Cl)c(Cl)c1 [3,4-DCB]",IC50,CVB3 [2],5 µM
same,CC5,HeLa cells; [9],14 µM
